Source: ChEMBL document CHEMBL5108051, “Improving the Antimicrobial Performance of Amphiphilic Cationic Antimicrobial Peptides Using Glutamic Acid Full-Scan and Positive Charge Compensation Strategies” (J Med Chem, 2022)
In brackets after ≈: the same amount, converted by molar mass. Square brackets hold non-standard residues; d marks the D form. Peptide text beside a SMILES is read from it. ξ: configuration not given here. Ile(3ξ) = CCC(C)[C@H](N)C(=O)O; ξK = NCCCCC(N)C(=O)O

Key:
Bacillus subtilis = assay: Antibacterial activity against Bacillus subtilis ATCC 23857 assessed as growth inhibition measured after 18 to 24 hrs by CLSI based broth microdilution method; format: functional; conditions: time 18-24 hrs
Erythrocyte = assay: Hemolytic activity against mouse RBC measured after 1 hrs; format: toxicity, cell-based
Escherichia coli = assay: Antibacterial activity against Escherichia coli ATCC 25922 assessed as growth inhibition measured after 18 to 24 hrs by CLSI based broth microdilution method; format: functional; conditions: time 18-24 hrs
Klebsiella pneumoniae = assay: Antibacterial activity against Klebsiella pneumoniae ATCC 700603 assessed as growth inhibition measured after 18 to 24 hrs by CLSI based broth microdilution method; format: functional; conditions: time 18-24 hrs
Staphylococcus aureus = assay: Antibacterial activity against Staphylococcus aureus ATCC 25923 assessed as growth inhibition measured after 18 to 24 hrs by CLSI based broth microdilution method; format: functional; conditions: time 18-24 hrs
Pseudomonas aeruginosa = assay: Antibacterial activity against Pseudomonas aeruginosa ATCC 27853 assessed as growth inhibition measured after 18 to 24 hrs by CLSI based broth microdilution method; format: functional; conditions: time 18-24 hrs

Row | Compound | MIC (Bacillus subtilis) [µM] | MIC (Escherichia coli) [µM] | MIC (Klebsiella pneumoniae) [µM] | MIC (Staphylococcus aureus) [µM] | MIC (Pseudomonas aeruginosa) [µM] | MHC10 (Erythrocyte) [µM]
1 | CC[C@H](C)[C@H](NC(=O)[C@@H]1CCCN1C(=O)[C@H](CC(C)C)NC(=O)[C@@H](N)Cc1ccccc1)C(=O)N[C@H](C(=O)N[C@@H](C)C(=O)N[C@@H](CCCCN)C(=O)N[C@@H](CC(C)C)C(=O)N[C@@H](CCC(=O)O)C(=O)N[C@@H](CO)C(=O)NCC(=O)N[C@@H](CC(C)C)C(=O)N[C@@H](CC(C)C)C(N)=O)C(C)C (H-FLPIVAKLESGLL-NH2) | > 128 | > 128 | > 128 | > 128 | > 128 | > 256
2 | CC[C@H](C)[C@H](NC(=O)[C@@H]1CCCN1C(=O)[C@H](CC(C)C)NC(=O)[C@@H](N)Cc1ccccc1)C(=O)N[C@H](C(=O)N[C@@H](C)C(=O)N[C@@H](CCCCN)C(=O)N[C@@H](CCC(=O)O)C(=O)N[C@@H](CC(C)C)C(=O)N[C@@H](CO)C(=O)NCC(=O)N[C@@H](CC(C)C)C(=O)N[C@@H](CC(C)C)C(N)=O)C(C)C (H-FLPIVAKELSGLL-NH2) | > 128 | > 128 | > 128 | > 128 | > 128 | > 256
3 | CC[C@H](C)[C@H](NC(=O)[C@@H]1CCCN1C(=O)[C@H](CCC(=O)O)NC(=O)[C@@H](N)Cc1ccccc1)C(=O)N[C@H](C(=O)N[C@@H](C)C(=O)N[C@@H](CCCCN)C(=O)N[C@@H](CC(C)C)C(=O)N[C@@H](CC(C)C)C(=O)N[C@@H](CO)C(=O)NCC(=O)N[C@@H](CC(C)C)C(=O)N[C@@H](CC(C)C)C(N)=O)C(C)C (H-FEPIVAKLLSGLL-NH2) | > 128 | > 128 | > 128 | > 128 | > 128 | > 256
4 | CC[C@H](C)[C@H](NC(=O)[C@@H]1CCCN1C(=O)[C@H](CC(C)C)NC(=O)[C@@H](N)Cc1ccccc1)C(=O)N[C@H](C(=O)N[C@@H](CCC(=O)O)C(=O)N[C@@H](CCCCN)C(=O)N[C@@H](CC(C)C)C(=O)N[C@@H](CC(C)C)C(=O)N[C@@H](CO)C(=O)NCC(=O)N[C@@H](CC(C)C)C(=O)N[C@@H](CC(C)C)C(N)=O)C(C)C (H-FLPIVEKLLSGLL-NH2) | > 128 | 64 (≈ 92.2 µg/mL) | > 128 | > 128 | > 128 | > 256
5 | CC[C@H](C)[C@H](NC(=O)[C@@H]1CCCN1C(=O)[C@H](CC(C)C)NC(=O)[C@@H](N)CCC(=O)O)C(=O)N[C@H](C(=O)N[C@@H](C)C(=O)N[C@@H](CCCCN)C(=O)N[C@@H](CC(C)C)C(=O)N[C@@H](CC(C)C)C(=O)N[C@@H](CO)C(=O)NCC(=O)N[C@@H](CC(C)C)C(=O)N[C@@H](CC(C)C)C(N)=O)C(C)C (H-ELPIVAKLLSGLL-NH2) | > 128 | > 128 | > 128 | > 128 | > 128 | > 256
6 | CC[C@H](C)[C@H](NC(=O)[C@@H]1CCCN1C(=O)[C@H](CC(C)C)NC(=O)[C@@H](N)Cc1ccccc1)C(=O)N[C@H](C(=O)N[C@@H](C)C(=O)N[C@@H](CCC(=O)O)C(=O)N[C@@H](CC(C)C)C(=O)N[C@@H](CC(C)C)C(=O)N[C@@H](CO)C(=O)NCC(=O)N[C@@H](CC(C)C)C(=O)N[C@@H](CC(C)C)C(N)=O)C(C)C (H-FLPIVAELLSGLL-NH2) | > 128 | > 128 | > 128 | > 128 | > 128 | > 256
7 | CC(C)C[C@H](NC(=O)[C@H](CC(C)C)NC(=O)CNC(=O)[C@H](CO)NC(=O)[C@H](CC(C)C)NC(=O)[C@H](CC(C)C)NC(=O)[C@H](CCCCN)NC(=O)[C@H](C)NC(=O)[C@@H](NC(=O)[C@H](CCC(=O)O)NC(=O)[C@@H]1CCCN1C(=O)[C@H](CC(C)C)NC(=O)[C@@H](N)Cc1ccccc1)C(C)C)C(N)=O (H-FLPEVAKLLSGLL-NH2) | > 128 | 64 (≈ 89.5 µg/mL) | > 128 | > 128 | > 128 | > 256
8 | CC(C)C[C@H](NC(=O)[C@H](CC(C)C)NC(=O)C(CCCCN)NC(=O)[C@H](CCC(=O)O)NC(=O)[C@H](CC(C)C)NC(=O)[C@H](CC(C)C)NC(=O)[C@H](CCCCN)NC(=O)[C@H](CCCCN)NC(=O)[C@@H](NC(=O)[C@H](CCCCN)NC(=O)[C@@H]1CCCN1C(=O)[C@H](CC(C)C)NC(=O)[C@@H](N)Cc1ccccc1)C(C)C)C(N)=O (stereo partly drawn) (H-FLPKVKKLLE[ξK]LL-NH2) | 32 (≈ 50.2 µg/mL) | 8 (≈ 12.5 µg/mL) | 16 (≈ 25.1 µg/mL) | 32 (≈ 50.2 µg/mL) | 16 (≈ 25.1 µg/mL) | > 256

The next molecules have a lower MIC (Bacillus subtilis) than those just listed; values first:

Row | MIC (Bacillus subtilis) [µM] | MIC (Escherichia coli) [µM] | MIC (Klebsiella pneumoniae) [µM] | MIC (Staphylococcus aureus) [µM] | MIC (Pseudomonas aeruginosa) [µM] | Compound | MHC10 (Erythrocyte) [µM]
9 | 16 (≈ 22.6 µg/mL) | > 128 | > 128 | 16 (≈ 22.6 µg/mL) | > 128 | CC[C@H](C)[C@H](NC(=O)[C@H](CCC(=O)O)NC(=O)[C@H](CC(C)C)NC(=O)[C@@H](N)Cc1ccccc1)C(=O)N[C@H](C(=O)N[C@@H](C)C(=O)N[C@@H](CCCCN)C(=O)N[C@@H](CC(C)C)C(=O)N[C@@H](CC(C)C)C(=O)N[C@@H](CO)C(=O)NCC(=O)N[C@@H](CC(C)C)C(=O)N[C@@H](CC(C)C)C(N)=O)C(C)C (H-FLEIVAKLLSGLL-NH2) | 16.06
10 | 16 (≈ 22.8 µg/mL) | > 128 | > 128 | 16 (≈ 22.8 µg/mL) | > 128 | CC[C@H](C)[C@H](NC(=O)[C@@H]1CCCN1C(=O)[C@H](CC(C)C)NC(=O)[C@@H](N)Cc1ccccc1)C(=O)N[C@H](C(=O)N[C@@H](C)C(=O)N[C@@H](CCCCN)C(=O)N[C@@H](CC(C)C)C(=O)N[C@@H](CC(C)C)C(=O)N[C@@H](CCC(=O)O)C(=O)NCC(=O)N[C@@H](CC(C)C)C(=O)N[C@@H](CC(C)C)C(N)=O)C(C)C (H-FLPIVAKLLEGLL-NH2) | 69.93
11 | 4 (≈ 6.21 µg/mL) | 8 (≈ 12.4 µg/mL) | 16 (≈ 24.8 µg/mL) | 4 (≈ 6.21 µg/mL) | 8 (≈ 12.4 µg/mL) | CCC(C)[C@H](NC(=O)[C@@H]1CCCN1C(=O)[C@H](CC(C)C)NC(=O)[C@@H](N)Cc1ccccc1)C(=O)N[C@H](C(=O)N[C@@H](CCCCN)C(=O)N[C@@H](CCCCN)C(=O)N[C@@H](CC(C)C)C(=O)N[C@@H](CC(C)C)C(=O)N[C@@H](CCCCN)C(=O)N[C@@H](CCC(=O)O)C(=O)N[C@@H](CC(C)C)C(=O)N[C@@H](CC(C)C)C(N)=O)C(C)C (stereo partly drawn) (H-FLP[Ile(3ξ)]VKKLLKELL-NH2) | 53.73
12 | 4 (≈ 6.21 µg/mL) | 8 (≈ 12.4 µg/mL) | 16 (≈ 24.8 µg/mL) | 4 (≈ 6.21 µg/mL) | 8 (≈ 12.4 µg/mL) | CCC(C)[C@H](NC(=O)[C@@H]1CCCN1C(=O)[C@H](CC(C)C)NC(=O)[C@@H](N)Cc1ccccc1)C(=O)N[C@H](C(=O)N[C@@H](CCCCN)C(=O)N[C@@H](CCCCN)C(=O)N[C@@H](CC(C)C)C(=O)N[C@@H](CC(C)C)C(=O)N[C@@H](CCC(=O)O)C(=O)N[C@@H](CCCCN)C(=O)N[C@@H](CC(C)C)C(=O)N[C@@H](CC(C)C)C(N)=O)C(C)C (stereo partly drawn) (H-FLP[Ile(3ξ)]VKKLLEKLL-NH2) | 42.55
13 | 4 (≈ 5.82 µg/mL) | > 128 | > 128 | 8 (≈ 11.6 µg/mL) | > 128 | CCC(C)[C@H](NC(=O)[C@@H]1CCCN1C(=O)[C@H](CC(C)C)NC(=O)[C@@H](N)Cc1ccccc1)C(=O)N[C@H](C(=O)N[C@@H](C)C(=O)N[C@@H](CCCCN)C(=O)N[C@@H](CC(C)C)C(=O)N[C@@H](CC(C)C)C(=O)N[C@@H](CO)C(=O)N[C@@H](CCCCN)C(=O)N[C@@H](CC(C)C)C(=O)N[C@@H](CC(C)C)C(N)=O)C(C)C (stereo partly drawn) (H-FLP[Ile(3ξ)]VAKLLSKLL-NH2) | 17.97
